pEC50, pKd: −log10 of the molar value.
Key:
[1] = molecular target: T1, IRBIT bound to GST-EL (mouse IP3R1 amino acids 1-2217) (Mus musculus, UniProt P11881, N1264K); experiment: Dissociation of IRBIT from GST-EL by eluants (pulldown, immunoblot quantification); type: binding
T1 construct: construct a GST-IP3R1 (1-2217) vector (termed GST-EL); made in house; host or cells: Sf9 cells (baculovirus) for GST-EL; IRBIT from mouse cerebellum tissue extract
Procedure: Bound proteins were pulled down with glutathione-Sepharose, and eluted with glutathione (Glu) (a) or 0.1 to 10 μM IP3 (a), IP2 (b), IP4 (c), IP6 (d), or ATP (e). IRBIT in the extract was analyzed with anti-IRBIT antibody and Alexa 680-conjugated secondary antibody (“a” (lower panel) and panels “b” to “e”). GST-EL in the glutathione and 0.1 to 10 μM IP3 eluate was analyzed with anti-GST antibody (a, upper panel). […] The relative intensity was plotted against the concentration of an eluant. Results are shown as the mean±standard deviation from at least three independent experiments.
For dissociation experiments, IRBIT in the diluted high salt extract was pulled down with GST-EL for precipitation and washed as described above. To resins, 100 μl of a wash buffer containing IP3, inositol 4,5-bisphosphate (IP2) (Dojindo), inositol 1,3,4,5-tetrakisphosphate (IP4) (Calbiochem), inositol 1,2,3,4,5,6-hexakisphosphate (IP6) (Calbiochem) or ATP (Amersham Pharmacia Biotech) (0.1, 0.3, 1, 3 or 10 μM) were added. After incubation on ice for 10 minutes, samples were centrifuged at 10,000 rpm for 1 minute, and the supernatant was subjected to immunoblot analysis with anti-IRBIT antibody or goat anti-GST antibody (Amersham Pharmacia Biotech). For quantification, Alexa 680-conjugated goat anti-rabbit IgG (Molecular Probes) was used as a secondary antibody. The fluorescence intensity of the immunoreactive bands of IRBIT was measured using the Odyssey infrared imaging system (Aloka). Quantitative data (the mean±SD from at least three independent experiments) is expressed as a percentage of the amount of IRBIT in 10 μM IP3 eluate.
IRBIT in the high salt extract from the mouse cerebellar crude microsome was trapped with GST-EL. Then elution was attempted with 0.1 to 10 μM IP3, and other inositolpolyphosphates, IP2, IP4, IP6 or ATP. […] It was confirmed that GST-EL was not detected (FIG. 8Aa, upper panel), even with longer exposure. […]

[2] = molecular target: N-terminal region of IP3R1 (amino acids 1-604) (Mus musculus, UniProt P11881); conditions: cited from earlier work
[3] = molecular target: T2, GST-EL (mouse IP3R1 amino acids 1-2217) (Mus musculus, UniProt P11881, N1264K); experiment: GST pulldown with GST-EL; type: binding; conditions: GFP fusion proteins in Cos-7 cell lysates
T2 construct: construct a GST-IP3R1 (1-2217) vector (termed GST-EL); made in house; host or cells: Sf9 cells (baculovirus)
Procedure: Mouse cerebellar cytosolic fraction was diluted 2-fold with 10 mM Hepes (pH 7.4), 200 mM NaCl, 2 mM EDTA, 1 mM 2-ME and 0.02% Triton X-100. The high salt extract was diluted 5-fold with 10 mM Hepes (pH 7.4), 2 mM EDTA, 1 mM 2-ME and 0.01% Triton X-100. The diluted fractions (the final NaCl concentration of both fractions was 100 mM) were incubated with 20 μg of GST-EL or GST for 2 hours at 4° C. After adding 10 μl of glutathione-Sepharose and another 2 hours of incubation, the resins were washed 5 times with a wash buffer (10 mM Hepes (pH 7.4), 100 mM NaCl, 2 mM EDTA, 1 mM 2-ME, and 0.01% Triton X-100), and bound proteins were eluted with 20 mM glutathione.
The eluted proteins were analyzed by Western blotting with anti-IRBIT antibody. For dephosphorylation, the diluted high salt extract was incubated in the presence of or the absence of Escherichia coli alkaline phosphatase (Toyobo) with 2 mM MgCl2 for 30 minutes at 37° C. 5 mM EDTA was added, and then the resultant was subjected to pulldown assay as described above.
For the determination of the IP3R1-interacting region of IRBIT, Cos-7 cells expressing GFP-tagged full-length IRBIT or its truncated mutants were lysed in a lysis buffer (10 mM Hepes (pH7.4), 100 mM NaCl, 2 mM EDTA, 1 mM 2-ME, 0.5% Nonidet P-40, and protease inhibitor) for 30 minutes at 4° C., followed by centrifugation (100,000×g, 30 minutes). The supernatants were subjected to pulldown assay with GST-EL or GST as described above, and bound proteins were subjected to immunoblot analysis with anti-GFP antibody (Medical & Biological Laboratories).

T2 sequence (P11881 1-2217 N1264K): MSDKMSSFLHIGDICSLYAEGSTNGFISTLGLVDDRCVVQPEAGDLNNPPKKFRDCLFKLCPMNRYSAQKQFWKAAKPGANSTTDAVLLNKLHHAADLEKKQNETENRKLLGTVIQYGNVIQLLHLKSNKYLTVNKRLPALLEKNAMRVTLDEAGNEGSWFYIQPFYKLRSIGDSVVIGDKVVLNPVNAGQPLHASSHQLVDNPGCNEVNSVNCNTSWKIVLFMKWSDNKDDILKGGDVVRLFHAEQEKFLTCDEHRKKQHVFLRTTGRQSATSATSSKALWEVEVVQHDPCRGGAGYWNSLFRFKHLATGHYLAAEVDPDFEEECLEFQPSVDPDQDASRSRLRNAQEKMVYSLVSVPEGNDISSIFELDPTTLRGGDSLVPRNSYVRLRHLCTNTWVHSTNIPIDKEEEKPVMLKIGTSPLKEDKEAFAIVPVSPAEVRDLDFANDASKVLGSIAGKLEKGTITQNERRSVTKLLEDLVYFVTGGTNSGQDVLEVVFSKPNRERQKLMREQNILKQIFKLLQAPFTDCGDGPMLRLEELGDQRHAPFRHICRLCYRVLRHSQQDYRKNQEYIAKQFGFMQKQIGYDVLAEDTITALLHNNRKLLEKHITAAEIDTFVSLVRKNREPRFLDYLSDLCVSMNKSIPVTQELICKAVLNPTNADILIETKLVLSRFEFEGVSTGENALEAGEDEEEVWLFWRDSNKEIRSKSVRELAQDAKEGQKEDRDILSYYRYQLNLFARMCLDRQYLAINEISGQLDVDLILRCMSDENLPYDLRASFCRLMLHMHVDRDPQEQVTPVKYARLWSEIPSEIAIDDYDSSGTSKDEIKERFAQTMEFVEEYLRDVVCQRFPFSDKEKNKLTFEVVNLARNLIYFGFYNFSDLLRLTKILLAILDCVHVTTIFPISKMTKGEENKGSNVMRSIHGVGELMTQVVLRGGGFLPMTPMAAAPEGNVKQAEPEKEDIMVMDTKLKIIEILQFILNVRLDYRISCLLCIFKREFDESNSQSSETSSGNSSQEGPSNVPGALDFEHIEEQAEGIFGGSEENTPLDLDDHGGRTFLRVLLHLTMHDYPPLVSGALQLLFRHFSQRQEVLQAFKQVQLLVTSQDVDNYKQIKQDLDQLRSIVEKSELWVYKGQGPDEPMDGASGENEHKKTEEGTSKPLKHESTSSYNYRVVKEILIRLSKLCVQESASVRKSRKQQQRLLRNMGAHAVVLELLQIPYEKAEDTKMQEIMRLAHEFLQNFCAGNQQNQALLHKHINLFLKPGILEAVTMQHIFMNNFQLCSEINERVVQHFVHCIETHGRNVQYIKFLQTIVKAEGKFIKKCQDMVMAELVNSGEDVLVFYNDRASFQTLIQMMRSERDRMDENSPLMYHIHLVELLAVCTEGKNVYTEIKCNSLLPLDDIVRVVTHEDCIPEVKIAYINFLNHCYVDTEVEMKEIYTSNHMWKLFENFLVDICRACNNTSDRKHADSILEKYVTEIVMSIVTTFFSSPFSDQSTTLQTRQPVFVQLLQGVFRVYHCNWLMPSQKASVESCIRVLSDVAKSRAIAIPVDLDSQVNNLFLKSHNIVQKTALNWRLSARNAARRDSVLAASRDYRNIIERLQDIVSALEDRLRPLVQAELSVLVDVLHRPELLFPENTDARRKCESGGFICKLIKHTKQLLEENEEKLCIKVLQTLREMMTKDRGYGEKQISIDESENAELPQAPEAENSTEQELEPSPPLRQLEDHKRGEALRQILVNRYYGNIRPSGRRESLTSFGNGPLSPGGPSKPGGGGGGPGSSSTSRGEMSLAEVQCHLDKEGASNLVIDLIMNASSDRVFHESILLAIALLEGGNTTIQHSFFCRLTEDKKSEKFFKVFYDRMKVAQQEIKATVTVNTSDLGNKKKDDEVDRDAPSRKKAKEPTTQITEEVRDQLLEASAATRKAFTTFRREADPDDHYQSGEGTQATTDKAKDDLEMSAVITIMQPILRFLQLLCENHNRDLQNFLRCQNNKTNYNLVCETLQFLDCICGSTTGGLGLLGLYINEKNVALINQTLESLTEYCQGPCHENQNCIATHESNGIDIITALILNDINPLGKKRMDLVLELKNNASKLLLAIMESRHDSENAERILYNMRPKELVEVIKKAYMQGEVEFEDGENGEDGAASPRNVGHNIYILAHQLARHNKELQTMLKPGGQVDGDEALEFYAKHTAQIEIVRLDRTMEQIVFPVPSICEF
T1 sequence (P11881 1-2217 N1264K): as above
Sequence of N-terminal region of IP3R1 (amino acids 1-604) (P11881 1-604): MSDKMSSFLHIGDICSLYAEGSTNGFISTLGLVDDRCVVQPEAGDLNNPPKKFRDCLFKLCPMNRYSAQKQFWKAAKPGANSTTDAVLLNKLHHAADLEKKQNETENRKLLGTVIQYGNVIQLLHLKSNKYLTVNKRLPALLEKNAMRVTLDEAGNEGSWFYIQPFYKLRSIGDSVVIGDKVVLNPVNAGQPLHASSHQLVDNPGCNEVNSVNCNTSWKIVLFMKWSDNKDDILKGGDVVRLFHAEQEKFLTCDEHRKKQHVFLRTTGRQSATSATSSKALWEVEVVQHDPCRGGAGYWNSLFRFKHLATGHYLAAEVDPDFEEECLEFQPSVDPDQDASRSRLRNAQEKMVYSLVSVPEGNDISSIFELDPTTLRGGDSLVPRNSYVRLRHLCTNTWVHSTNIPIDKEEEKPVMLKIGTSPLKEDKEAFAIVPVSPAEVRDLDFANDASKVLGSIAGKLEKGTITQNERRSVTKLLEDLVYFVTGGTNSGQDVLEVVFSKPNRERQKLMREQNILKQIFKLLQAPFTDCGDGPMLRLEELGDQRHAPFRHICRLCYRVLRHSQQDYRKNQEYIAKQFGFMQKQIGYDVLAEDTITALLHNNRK

Compound: Nc1ncnc2c1ncn2[C@@H]1O[C@H](COP(=O)(O)OP(=O)(O)OP(=O)(O)O)[C@@H](O)[C@H]1O [ATP]
- dissociation of IRBIT from GST-EL ([1]; 10 μM eluant): did not dissociate

Compound: O=P(O)(O)O[C@@H]1[C@H](O)[C@H](O)[C@@H](OP(=O)(O)O)[C@H](OP(=O)(O)O)[C@H]1O [IP3, inositol 1,4,5-trisphosphate]
- pEC50 ([1]; pH 7.4 and 100 mM NaCl, IRBIT from mouse cerebellar high salt extract, read-out: EC50 (IP3 concentration required for half (50%)-maximal dissociation of IRBIT from GST-EL)): ~6.30
- dissociation efficiency relative to other inositol polyphosphates ([1]; versus IP2, IP4, IP6): approximately 50 times
- affinity lower than the Kd value determined by a conventional assay ([2]; pH 7.4 and 150 mM NaCl versus conventional assay): approximately 7.5 fold
- pKd ([2]; physiological conditions (pH 7.4 and 150 mM NaCl), read-out: Kd of IP3 binding): 6.47

Compound: GFP-IRBIT (1 to 277): GFP-tagged deletion mutant of IRBIT, amino acids 1-277
- interaction with GST-EL [3]: bound to GST-EL efficiently

Compound: GFP-IRBIT (1-104): GFP-tagged deletion mutant of IRBIT, amino acids 1-104 (N-terminal region)
- interaction with GST-EL [3]: much weaker

Compound: GFP-IRBIT (105-530): GFP-tagged deletion mutant of IRBIT, amino acids 105-530, lacking the N-terminal region
- interaction with GST-EL [3]: did not interact with GST-EL

Compound: GFP-IRBIT: GFP-tagged full-length IRBIT expressed in Cos-7 cells
- interaction with GST-EL [3]: bound to GST-EL efficiently

— patent US20050181450A1, “Novel inositol 1,4,5-trisphosphate (IP3) receptor-binding protein and an IP3 indicator” (priority 2002, published 2005)
